Measured values taken from patent US11185100B2 (priority 2014, dated 2021).
Where two headings read alike, the source gives them in different places.

Tests used:
T1R1/T1R3 receptor [1] = target: T1, T1R1/T1R3 receptor (Felis catus, UniProt E3UMS2); experiment: Activation of T1R1/T1R3 receptor by transmembrane compounds and nucleotide derivatives, conducted as in Examples 1, 2 and 5 (Example 7); format: cell-based, cat; conditions: for Activity: modulation of T1R1/T1R3
From the text: (§1) Methods: HEK293 cells that stably express T1R3 and inducibly express T1R1 were exposed to nucleotide derivatives alone to activate the umami receptor. Activation of the T1R1/T1R3 receptor was detected by a change in intracellular calcium levels using a calcium sensitive fluorescent dye. Cells that express T1R3 but not T1R1 were used as a control. A FLIPR® Tetra or a FlexStation® 3 was used for data capture.
as §1, with “alone or in combination with one or more amino acids and/or one or more nucleotides” for “alone”, “dye and/or a luminescent reporter system.” for “dye.”
as §1, with “transmembrane compounds” for “nucleotide derivatives”, “alone or in combination with one or more amino acids and/or one or more nucleotides” for “alone”
(§2) In each experiment, serial dilutions of up to 10 mM of the transmembrane compound were added to the T1R1/T1R3-expressing cells.

T1R1/T1R3 receptor [2] = target: T1, T1R1/T1R3 receptor; experiment: Activation of T1R1/T1R3 receptor by transmembrane compounds alone or with alanine, IMP, GMP, phenylalanine; HEK293 cells, calcium fluorescence (Example 5); format: cell-based, cat; conditions: for Max resp % of IMP +Alanine (20 mM): relative to IMP; for Thres +Alanine (20 mM) / Thres +IMP (0.2 mM): threshold concentration; for Max resp % of Ala +IMP (0.2 mM): relative to Ala; for Activity: Table 18, all transmembrane compounds tested, active / N/A (not active)
From the text: as §1, with “transmembrane compounds” for “nucleotide derivatives”, “alone or in combination with one or more amino acids and/or one or more nucleotides” for “alone”
as §2

[3] = read-out: EC50 +Alanine (20 mM)
[4] = read-out: EC50 +Alanine (20 mM) + IMP (0.2 mM)

Compound | Max resp ΔF/F +Alanine (20 mM) (T1R1/T1R3 receptor [1]) | Thres +Alanine (20 mM) (T1R1/T1R3 receptor [1]) [mM] | Max resp % of Ala +IMP (0.2 mM) (T1R1/T1R3 receptor [1]; +IMP (0.2 mM)) | Max resp ΔF/F +IMP (0.2 mM) (T1R1/T1R3 receptor [1]; +IMP (0.2 mM)) | Thres +IMP (0.2 mM) (T1R1/T1R3 receptor [1]; +IMP (0.2 mM)) [mM] | Max resp % of IMP +Alanine (20 mM) (T1R1/T1R3 receptor [1]; hek293 cells) | Activity (T1R1/T1R3 receptor [1]) | Max resp % of IMP +Alanine (20 mM) (T1R1/T1R3 receptor [2]) [%] | Thres +Alanine (20 mM) (T1R1/T1R3 receptor [2]) [mM] | Max resp ΔF/F +IMP (0.2 mM) (T1R1/T1R3 receptor [2]) | Max resp % of Ala +IMP (0.2 mM) (T1R1/T1R3 receptor [2]) [%] | Thres +IMP (0.2 mM) (T1R1/T1R3 receptor [2]) [mM] | Activity (T1R1/T1R3 receptor [2]) | also measured
O=C(O)C1CCCCC1C(=O)Nc1cc(Cl)cc(Cl)c1 (stereo not drawn) [2-((3,5-dichlorophenyl)carbamoyl)cyclohexanecarboxylic acid] | 1.1200 ΔF/F | 0.1 | 157.9 % of Ala | 1.2275 ΔF/F | 0.03 | 163.5 % of IMP | active | – | – | – | – | – | – | –
CCCCc1nn(CC(=O)N2CCCC2)c(=O)n1Cc1ccccc1 [4-benzyl-3-butyl-1-(2-oxo-2-(pyrrolidin-1-yl)ethyl)-1H-1,2,4-triazol-5(4H)-one] | 0.8900 ΔF/F | 0.3 | 193.2 % of Ala | 1.5025 ΔF/F | 0.1 | 129.9 % of IMP | active | – | – | – | – | – | – | EC50 (T1R1/T1R3 receptor [1]; compound alone in buffer, read-out: EC50 +buffer (alone)): > 600 µM; EC50 (T1R1/T1R3 receptor [1]; [3]): > 600 µM; EC50 (T1R1/T1R3 receptor [1]; [4]): > 600 µM; EC50 (T1R1/T1R3 receptor [1]; read-out: EC50 +IMP (0.2 mM), +IMP (0.2 mM)): > 600 µM
O=C(NCCc1c[nH]c2ccccc12)c1cccnc1 [N-(2-(1H-indol-3-yl)ethyl)nicotinamide, N-(2-(1H-Indol-3-yl)ethyl)nicotinamide] | 1.1400 ΔF/F | 0.03 | 170.1 % of Ala | 1.3225 ΔF/F | 0.003 | 166.4 % of IMP | active | – | – | – | – | – | – | EC50 (T1R1/T1R3 receptor [1]; [3]): > 100 µM
CC(=O)Nc1ccc(C(=O)Nc2cc(-c3ccccc3)nn2CCO)cc1 [4-acetamido-N-(1-(2-hydroxyethyl)-3-phenyl-1H-pyrazol-5-yl)benzamide] | 0.0125 ΔF/F | – | 58.8 % of Ala | 0.4575 ΔF/F | – | 1.8 % of IMP | active | – | – | – | – | – | – | –
N[C@@H](CS)C(=O)O [L-Cysteine, reference compound] | – | – | 74.6 % of Ala | 0.5800 ΔF/F | 10.0 | – | – | – | – | – | – | – | – | –
CCOC(=O)NC(=O)C(c1ccccc1)c1ccccc1 [Ro 01-6128, reference compound] | – | – | 199.7 % of Ala | 1.5525 ΔF/F | 0.01 | – | active | – | – | – | – | – | – | Max resp % of IMP +Alanine (20 mM) (T1R1/T1R3 receptor [1]; +Alanine (20 mM)): 74.8 % of IMP; Max resp ΔF/F +Alanine (20 mM) (T1R1/T1R3 receptor [1]; +Alanine (20 mM)): 0.5125 ΔF/F; Thres +Alanine (20 mM) (T1R1/T1R3 receptor [1]; +Alanine (20 mM)): 0.3 mM
Nc1nc2c(ncn2[C@@H]2O[C@H](COP(=O)(O)O)[C@@H](O)[C@H]2O)c(=O)[nH]1 [Guanosine monophosphate (GMP), guanosine monophosphate, reference compound] | – | – | – | – | – | – | – | – | – | – | – | – | – | Max resp % of IMP +Alanine (20 mM) (T1R1/T1R3 receptor [1]; +Alanine (20 mM)): 114.6 % of IMP; Max resp ΔF/F +Alanine (20 mM) (T1R1/T1R3 receptor [1]; +Alanine (20 mM)): 0.7850 ΔF/F; Thres +Alanine (20 mM) (T1R1/T1R3 receptor [1]; +Alanine (20 mM)): 0.01 mM
O=C(NCCc1ccccc1)c1cccnc1 [N-phenethylnicotinamide] | 0.5725 ΔF/F | 0.1 | 149.5 % of Ala | 1.1625 ΔF/F | 0.03 | 83.6 % of IMP | active | – | – | – | – | – | – | EC50 (T1R1/T1R3 receptor [1]; read-out: T1R1/T1R3 EC50): > 300 µM
O=C(NCCc1ccccc1)c1ccc2c(c1)OCO2 [N-phenethylbenzo[d][1,3]dioxole-5-carboxamide] | 0.0775 ΔF/F | 1.0 | 92.0 % of Ala | 0.7150 ΔF/F | 0.01 | 11.3 % of IMP | active | – | – | – | – | – | – | –
O=C(NCCCCNC(=O)c1cccnc1)c1cccnc1 [N,N′-(butane-1,4-diyl)dinicotinamide] | 0.0650 ΔF/F | 1.0 | 49.2 % of Ala | 0.3825 ΔF/F | 0.1 | 9.5 % of IMP | active | – | – | – | – | – | – | EC50 (T1R1/T1R3 receptor [1]; [4]): 610 µM; EC50 (T1R1/T1R3 receptor [1]; read-out: T1R1/T1R3 EC50): 610 ± 360 µM
CCCC(C)NC(=O)c1ccc(OC)c(C)c1 (stereo not drawn) [4-methoxy-3-methyl-N-(pentan-2-yl)benzamide] | – | – | – | – | – | – | – | 126.0 | 0.050 | 1.5875 ΔF/F | 128.9 | 0.025 | active | +Alanine (20 mM) Max resp % of IMP (T1R1/T1R3 receptor [2]): 126.0 % of IMP; +Alanine (20 mM) Max resp ΔF/F (T1R1/T1R3 receptor [2]): 1.5650 ΔF/F; +Alanine (20 mM) Thres (T1R1/T1R3 receptor [2]): 0.050 mM; +IMP (0.2 mM) Max resp % of Ala (T1R1/T1R3 receptor [2]): 128.9 % of Ala
COc1cc(C(=O)NC(C(N)=O)c2ccccc2)cc(Cl)c1OC (stereo not drawn) [N-(2-amino-2-oxo-1-phenylethyl)-3-chloro-4,5-dimethoxybenzamide] | – | – | – | – | – | – | – | – | – | 0.415 ΔF/F | 49.4 | 0.17 | active | +IMP (0.2 mM) Max resp % of Ala (T1R1/T1R3 receptor [2]): 49.4 % of Ala; activation of T1R1/T1R3 by the transmembrane compound alone (in words) (T1R1/T1R3 receptor [2]; compound alone): failed to activate
COc1ccc(/C=C/C(=O)NC2CCCCC2C)cc1 (stereo not drawn) [(E)-3-(4-methoxyphenyl)-N-(2-methylcyclohexyl) acrylamide] | – | – | – | – | – | – | – | 63.2 | 3 | 1.7725 ΔF/F | 144.0 | 0.3 | active | +Alanine (20 mM) Max resp % of IMP (T1R1/T1R3 receptor [2]): 63.2 % of IMP; +Alanine (20 mM) Max resp ΔF/F (T1R1/T1R3 receptor [2]): 0.785 ΔF/F; +Alanine (20 mM) Thres (T1R1/T1R3 receptor [2]): 3 mM; +IMP (0.2 mM) Max resp % of Ala (T1R1/T1R3 receptor [2]): 144.0 % of Ala
CCCC(C)NC(=O)/C=C/c1ccc(OC)c(OC)c1 (stereo not drawn) [(E)-3-(3,4-dimethoxyphenyl)-N-(pentan-2-yl)acrylamide] | – | – | – | – | – | – | – | 35.2 | 1 | 1.07 ΔF/F | 86.9 | 0.55 | active | –
O=C(NCCc1ccccc1)C(=O)NCc1cccnc1 [N1-phenethyl-N2-(pyridin-3-ylmethyl)oxalamide] | – | – | – | – | – | – | – | 30.2 | 1 | 0.7625 ΔF/F | 61.9 | 0.1 | active | –
COc1ccc(C(=O)NC(C)c2ccccc2)cc1C (stereo not drawn) [4-methoxy-3-methyl-N-(1-phenylethyl)benzamide] | – | – | – | – | – | – | – | 41.0 | 3 | 1.1775 ΔF/F | 95.6 | 0.35 | active | +Alanine (20 mM) Max resp % of IMP (T1R1/T1R3 receptor [2]): 41.0 % of IMP; +Alanine (20 mM) Max resp ΔF/F (T1R1/T1R3 receptor [2]): 0.51 ΔF/F; +Alanine (20 mM) Thres (T1R1/T1R3 receptor [2]): 3 mM; +IMP (0.2 mM) Max resp % of Ala (T1R1/T1R3 receptor [2]): 95.6 % of Ala
CCC(CC)NC(=O)c1ccc2c(c1)OCCO2 [N-(pentan-3-yl)-2,3-dihydrobenzo[b][1,4]dioxine-6-carboxamide] | – | – | – | – | – | – | – | 25.2 | 0.3 | 0.8725 ΔF/F | 70.9 | 0.075 | active | +Alanine (20 mM) Max resp % of IMP (T1R1/T1R3 receptor [2]): 25.2 % of IMP; +Alanine (20 mM) Max resp ΔF/F (T1R1/T1R3 receptor [2]): 0.3125 ΔF/F; +Alanine (20 mM) Thres (T1R1/T1R3 receptor [2]): 0.3 mM; +IMP (0.2 mM) Max resp % of Ala (T1R1/T1R3 receptor [2]): 70.9 % of Ala
